Activity calls are given as the source filed them. The rule behind the calls is not given here.
species: Danio rerio; assay: Antiinflammatory activity in transgenic fluorescent zebrafish expressing EGFP assessed as reduction in CuSO4 induced number of macrophages surrounding the neuromast at 20 uM preincubated for 2 hrs followed by Cuso4 addition and measured after 1 hr by fluorescence microscopic analysis; assay type: functional, organism-based; conditions: time 3.0 hrs

Row | Compound | Activity
1 | CC1=C2CC[C@@]3(C)CC/C(C)=C\C(=O)C[C@@H](C)C[C@@H](OC1=O)[C@]23OO | Active
2 | CC1=C2C(=O)C[C@@]3(C)CC/C(C)=C\C(=O)C[C@@H](C)C[C@@H](OC1=O)[C@H]23 | Active
3 | CC1=C2CC[C@@]3(C)/C=C/[C@]4(C)C[C@](O)(C[C@@H](C)C[C@@H](OC1=O)[C@H]23)OO4 | Active
4 | C=C[C@@]1(C)C[C@H]2NC(=O)C(C)=C2C[C@@H]1C(=C)C(=O)OC | Active
5 | CC1=C2CC[C@@]3(C)CC/C(C)=C/C(=O)C[C@@H](C)C[C@@H](OC1=O)[C@H]23 | Active
6 | C=C[C@]1(C)C[C@@H]2NC(=O)C(C)=C2C[C@H]1C(=C)C(=O)OC | Active
7 | COc1ccc2c(c1)c(CC(=O)O)c(C)n2C(=O)c1ccc(Cl)cc1 | Active
8 | C=C1CC/C=C(\C)C[C@@H](O)[C@@H]2C(C(C)(C)O)=CC[C@@]2(C)CC1 | Active
9 | C=C1CC/C=C(\C)C[C@H]2OC(=O)C(C)=C3CC[C@@](C)(CC1)[C@@H]32 | Active

species: Danio rerio; assay: Antiinflammatory activity in transgenic fluorescent zebrafish expressing EGFP assessed as reduction in CuSO4 induced macrophage migration at 20 uM preincubated for 2 hrs followed Cuso4 addition and measured after 1 hr by fluorescence microscopic analysis; assay type: functional, organism-based; conditions: time 3.0 hrs

Row | Compound | Activity
10 | CC1=C2CC[C@@]3(C)CC/C(C)=C\C(=O)C[C@@H](C)C[C@@H](OC1=O)[C@]23OO | Active
11 | CC1=C2C(=O)C[C@@]3(C)CC/C(C)=C\C(=O)C[C@@H](C)C[C@@H](OC1=O)[C@H]23 | Active
12 | CC1=C2CC[C@@]3(C)/C=C/[C@]4(C)C[C@](O)(C[C@@H](C)C[C@@H](OC1=O)[C@H]23)OO4 | Active
13 | C=C[C@@]1(C)C[C@H]2NC(=O)C(C)=C2C[C@@H]1C(=C)C(=O)OC | Active
14 | CC1=C2CC[C@@]3(C)CC/C(C)=C/C(=O)C[C@@H](C)C[C@@H](OC1=O)[C@H]23 | Active
15 | C=C[C@]1(C)C[C@@H]2NC(=O)C(C)=C2C[C@H]1C(=C)C(=O)OC | Active
16 | COc1ccc2c(c1)c(CC(=O)O)c(C)n2C(=O)c1ccc(Cl)cc1 | Active
17 | C=C1CC/C=C(\C)C[C@@H](O)[C@@H]2C(C(C)(C)O)=CC[C@@]2(C)CC1 | Active
18 | C=C1CC/C=C(\C)C[C@H]2OC(=O)C(C)=C3CC[C@@](C)(CC1)[C@@H]32 | Active

Source: ChEMBL document CHEMBL5038648, “Dolabellane Diterpenes and Elemane Alkaloids from the Soft Coral Clavularia inflata Collected in the South China Sea” (J Nat Prod, 2022)
